Reference: patent US20260262643A1, “HERBICIDAL BENZOXAZINES” (FMC CORPORATION, priority 2022, published 2026)

Columns and labels:
Pigweed, Redroot [1] = test: Test A preemergence; format: in vivo, Amaranthus retroflexus; settings: 1000 g ai/ha, 0 to 100 scale (0 no effect, 100 complete control), 10 days
Method in brief: (§1)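 Loam/sand soil; pre-em directed soil spray at planting, post-em spray at 1–2 leaf (2–10 cm). Compound in non-phytotoxic solvent + surfactant. Greenhouse 10 d; visual injury vs untreated, 0 = no effect, 100 = complete control.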

wheat = test: Test A postemergence; format: in vivo, Triticum aestivum; settings: 1000 g ai/ha, Postemergence; 0 to 100 scale
Method in brief: as §1

kochia [2] = test: Test A preemergence; format: in vivo, Bassia scoparia; settings: 1000 g ai/ha, 0 to 100 scale (0 no effect, 100 complete control), 10 days
Method in brief: as §1

barnyardgrass [3] = test: Test A postemergence; format: in vivo, Echinochloa crusgalli; settings: 1000 g ai/ha, Postemergence; 0 to 100 scale
Method in brief: as §1

barnyardgrass [4] = test: Test B flooded paddy test; format: in vivo, Echinochloa crus-galli; settings: 250 g ai/ha, Flood, 13 days, 0 to 100 scale (0 no effect, 100 complete control)
Method in brief: (§2)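 Flooded to 3 cm at treatment time, 2-leaf plants got the test compound applied straight into the paddy water. They then stayed under constant flood in a greenhouse for 13 days. Ratings used a 0 to 100 visual scale.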

galium = test: Test A postemergence; format: in vivo, Galium aparine; settings: 1000 g ai/ha, Postemergence; 0 to 100 scale
Method in brief: as §1

ragweed [5] = test: Test A preemergence; format: in vivo, Ambrosia artemisiifolia; settings: 1000 g ai/ha, 0 to 100 scale (0 no effect, 100 complete control), 10 days
Method in brief: as §1

rice = test: Test B flooded paddy test; format: in vivo, Oryza sativa; settings: 250 g ai/ha, Flood, 13 days, 0 to 100 scale (0 no effect, 100 complete control)
Method in brief: as §2

foxtail, giant [6] = test: Test A postemergence; format: in vivo, Setaria faberi; settings: 1000 g ai/ha, Postemergence; 0 to 100 scale
Method in brief: as §1

kochia [7] = test: Test A postemergence; format: in vivo, Bassia scoparia; settings: 1000 g ai/ha, Postemergence; 0 to 100 scale
Method in brief: as §1

ryegrass, Italian [8] = test: Test A postemergence; format: in vivo, Lolium multiflorum; settings: 1000 g ai/ha, Postemergence; 0 to 100 scale
Method in brief: as §1

barnyardgrass [9] = test: Test A preemergence; format: in vivo, Echinochloa crusgalli; settings: 1000 g ai/ha, 0 to 100 scale (0 no effect, 100 complete control), 10 days
Method in brief: as §1

Pigweed, Redroot [10] = test: Test A postemergence; format: in vivo, Amaranthus retroflexus; settings: 1000 g ai/ha, Postemergence; 0 to 100 scale
Method in brief: as §1

ragweed [11] = test: Test A postemergence; format: in vivo, Ambrosia artemisiifolia; settings: 1000 g ai/ha, Postemergence; 0 to 100 scale
Method in brief: as §1

blackgrass = test: Test A postemergence; format: in vivo, Alopecurus myosuroides; settings: 1000 g ai/ha, Postemergence; 0 to 100 scale
Method in brief: as §1

ducksalad = test: Test B flooded paddy test; format: in vivo, Heteranthera limosa; settings: 250 g ai/ha, Flood, 13 days, 0 to 100 scale (0 no effect, 100 complete control)
Method in brief: as §2

ryegrass, Italian [12] = test: Test A preemergence; format: in vivo, Lolium multiflorum; settings: 1000 g ai/ha, 0 to 100 scale (0 no effect, 100 complete control), 10 days
Method in brief: as §1

sedge, umbrella = test: Test B flooded paddy test; format: in vivo, Cyperus difformis; settings: 250 g ai/ha, Flood, 13 days, 0 to 100 scale (0 no effect, 100 complete control)
Method in brief: as §2

corn = test: Test A postemergence; format: in vivo, Zea mays; settings: 1000 g ai/ha, Postemergence; 0 to 100 scale
Method in brief: as §1

foxtail, giant [13] = test: Test A preemergence; format: in vivo, Setaria faberi; settings: 1000 g ai/ha, 0 to 100 scale (0 no effect, 100 complete control), 10 days
Method in brief: as §1

CC1CN(C(=O)c2cccc(-n3cncn3)c2)c2cccc(F)c2O1 (stereo not shown) [Compound 20]
Plant response rating, Pigweed, Redroot (Pigweed, Redroot [1]): 80 | Plant response rating, Wheat (wheat): 70 | Plant response rating, Kochia (kochia [2]): 80 | Plant response rating, Barnyardgrass (barnyardgrass [3]): 90 | Plant response rating, Barnyardgrass (barnyardgrass [4]): 0 | Plant response rating, Galium (galium): 90 | Plant response rating, Ragweed (ragweed [5]): 80 | Plant response rating, Rice (rice): 0 | Plant response rating, Foxtail, Giant (foxtail, giant [6]): 90 | Plant response rating, Kochia (kochia [7]): 30 | Plant response rating, Ryegrass, Italian (ryegrass, Italian [8]): 70 | Plant response rating, Barnyardgrass (barnyardgrass [9]): 90 | Plant response rating, Pigweed, Redroot (Pigweed, Redroot [10]): 30 | Plant response rating, Ragweed (ragweed [11]): 30 | Plant response rating, Blackgrass (blackgrass): 70 | Plant response rating, Ducksalad (ducksalad): 85 | Plant response rating, Ryegrass, Italian (ryegrass, Italian [12]): 100 | Plant response rating, Sedge, Umbrella (sedge, umbrella): 35 | Plant response rating, Corn (corn): 60 | Plant response rating, Foxtail, Giant (foxtail, giant [13]): 100

Cc1cccc2c1OC(C)CN2C(=O)c1cccc(-n2cncn2)c1 (stereo not shown) [Compound 21]
Plant response rating, Pigweed, Redroot (Pigweed, Redroot [1]): 100 | Plant response rating, Wheat (wheat): 70 | Plant response rating, Kochia (kochia [2]): 70 | Plant response rating, Barnyardgrass (barnyardgrass [3]): 90 | Plant response rating, Barnyardgrass (barnyardgrass [4]): 0 | Plant response rating, Galium (galium): 80 | Plant response rating, Ragweed (ragweed [5]): 70 | Plant response rating, Rice (rice): 0 | Plant response rating, Foxtail, Giant (foxtail, giant [6]): 90 | Plant response rating, Kochia (kochia [7]): 40 | Plant response rating, Ryegrass, Italian (ryegrass, Italian [8]): 80 | Plant response rating, Barnyardgrass (barnyardgrass [9]): 100 | Plant response rating, Pigweed, Redroot (Pigweed, Redroot [10]): 60 | Plant response rating, Ragweed (ragweed [11]): 40 | Plant response rating, Blackgrass (blackgrass): 80 | Plant response rating, Ducksalad (ducksalad): 65 | Plant response rating, Ryegrass, Italian (ryegrass, Italian [12]): 100 | Plant response rating, Sedge, Umbrella (sedge, umbrella): 35 | Plant response rating, Corn (corn): 90 | Plant response rating, Foxtail, Giant (foxtail, giant [13]): 100
